Data set [1] deals with A549 (human lung cancer cells). As to the kind of experiment: MTT cytotoxicity assay. It counts as cell-based. Conditions: 48 h incubation, mean ± SD. As to the method:
(§1) The anticancer activities of RuRe-1 and RuRe-2 against four cancer cell lines: HeLa (human cervical cancer cells), HepG2 (human hepatocellular carcinoma), A549 (human lung cancer cells), A549R (cisplatin-resistant A549) and one normal cell line LO2 (human normal liver cells) were determined by 3-(4,5-dimethylthiazole)-2,5-diphenyltetraazolium bromide (MTT) assay, while the mononuclear complexes Ru-1, Ru-2, Re-1 and cisplatin were selected as controls. […] And the in vitro antiproliferative efficacies of the compounds against HeLa cells were in the following order: RuRe-2 > RuRe-1 > Re-1 > cisplatin > Ru-1 > Ru-2. […] The anticancer activity of the mononuclear rhenium complex Re-1 was between 5.6 μM and 8.0 μM, which contributed the most to the antitumor activities of the heteronuclear Ru(II)-Re(Ⅰ) metal complexes.
(§2) Cell lines and culture conditions. HeLa, HepG2, A549, A549R and LO2 cells were purchased from Nanjing KeyGen Biotech., and cultured in DMEM or RPMI 1640 complete medium at 37 ℃ with 5% CO2 atmosphere.
(§3) In vitro cytotoxicity assay. The anti-tumor activity of mononuclear complexes Ru-1, Ru-2, Re-1 and heteronuclear RuRe-1 and RuRe-2 were determined by MTT (5 mg/mL) assay. Cells were placed in 96-well plates and cultured for 24 h at 37 ℃ in a 5% CO2 incubator. After replacing the culture medium with fresh medium containing RuRe-1 or RuRe-2 at the indicated concentration, cells were cultured for 48 h. 20 μL MTT was added to each well 4 h before the end of the incubation. Subsequently, the liquid in the cell wells was poured out and 150 μL/well DMSO was added to dissolve the MTT-formazan crystals. The absorbance of living cells at 570 nm was detected.

Data set [2] has as its system HeLa (human cervical cancer cells). The data set is described as follows: MTT cytotoxicity assay. Conditions: 48 h incubation, mean ± SD. It counts as cell-based. On the procedure: as §1, §2, §3
A general note: Formazan colour is commonly taken as a measure of viable cells.

Data set [3] deals with HepG2 (human hepatocellular carcinoma). The data set is described as follows: MTT cytotoxicity assay. It counts as cell-based. The following applies: 48 h incubation, mean ± SD. As to the method:
as §1, §2, §3

Data set [4] concerns LO2 (human normal liver cells). As to the kind of experiment: MTT cytotoxicity assay. Conditions: 48 h incubation, mean ± SD. It counts as cell-based. As to the method:
as §1, §2, §3

A short description of data set [5]: n-octanol/water partition coefficient by shaking flask method. Format: physicochemical. An excerpt: Drugs exert their effects through pharmacokinetic processes such as absorption, distribution, and metabolism, which are closely related to the n-octanol/water partition coefficient of the drug (log P o/w) ([Choi et al., 2012]).
Data set [6] concerns HeLa cells. The data set is described as follows: Cell cycle analysis by flow cytometry with PI staining. Format: cell-based, human. The following applies: 24 h; for S cell cycle population: control 14.4 ± 0.9; for G2/M cell cycle population: control 21.4 ± 0.7; for G0/G1 cell cycle population: control 64.2 ± 1.3. An excerpt: Cell cycle arrest studies provide a good understanding of cell apoptosis induced by metal drugs ([Sadoughi et al., 2021]). To further clarify the mechanism of apoptosis induced by RuRe-1 and RuRe-2, we analyzed the cell cycle of HeLa cells treated with RuRe-1 and RuRe-2 by flow cytometry with PI staining. […] A corresponding decrease in cell content in G1 and G2 phases was observed.
Cell cycle analysis. After HeLa cells were adhered to the 6-well plates, the medium was replaced with medium containing different concentrations of RuRe-1 and RuRe-2 for 24 h. Cells were collected and fixed for 24 h with pre-cooled 70% ethanol, then washed twice with PBS and finally stained with PI staining solution in a warm bath at 37 °C for 30 mins. The samples were detected by flow cytometry.

In data set [7] the test system is HeLa cells. As to the kind of experiment: Intracellular ROS by H2DCFDA staining. Format: cell-based, human. The following applies: 6 h, confocal microscopy. On the procedure:
ROS are natural by-product of normal oxygen metabolism and play an important role in cellular signaling transduction and homeostasis in vivo ([Casas et al., 2020]). It has been shown that the excessive production of ROS may cause oxidative stress and lead to cell death ([Jia et al., 2020]). Herein, cells were treated with RuRe-1 and RuRe-2 for 6 h and then stained with 2′,7′-dichlorodihydrouorescein diacetate (H2DCFDA). H2DCFDA is non-fluorescent and can be oxidized by intracellular ROS to highly fluorescent 2′,7′-dichlorofluorescein (DCF) ([Abdel Hadi et al., 2021]). The intensity of green fluorescence can respond to the accumulation of intracellular ROS.
FIGURE 7 RuRe-1 and RuRe-2 induced the elevation of intracellular ROS levels examined by confocal microscopy with H2DCFDA staining (λ ex = 488 nm, λ em = 530 ± 20 nm). The incubation time of the compounds was 6 h. Scale bar: 20 μm.
Measurement of intracellular ROS. After HeLa cells were adhered to the confocal dishes, the medium was replaced with medium containing the indicated concentrations of RuRe-1 and RuRe-2 for 6 h. Subsequently, the medium was aspirated and cells were washed three times with serum-free DMEM. Then, cells were co-incubated with fluorescent dye H2DCFDA (10 μM) at 37 °C for 10 mins and washed three times with PBS and visualized by a confocal microscope (λex = 488 nm, λem = 530 ± 20 nm).

Data set [8] deals with HeLa cells. The data set is described as follows: Colony formation assay. The following applies: 24 h treatment then 7 days. Format: cell-based, human. On the procedure: The consequence of increased local cell migration is distal invasion, and the clonal growth of distal invasive cells will produce a second tumor ([Wang et al., 2017]). We further investigated the ability of RuRe-1 and RuRe-2 to inhibit the formation of cell colonies by cell colony formation assay.
Colony forming assay. HeLa cells were cultured in 6-well plates at a density of 500 cells per well. After cells had adhered, the medium was replaced with medium containing the indicated concentrations of RuRe-1 and RuRe-2 for 24 h. Subsequently, the medium was replaced with fresh medium and the cells were cultured for 7 days to form colonies. The colonies formed were fixed with 4% paraformaldehyde, and stained with crystal violet (0.005%). Finally, colonies were calculated and the images were taken using digital camera.

From publication PMC9196629, “Synthesis, Characterization and Antitumor Mechanism Investigation of Heterometallic Ru(Ⅱ)-Re(Ⅰ) Complexes” (Frontiers in Chemistry, 2022) come the findings set out here.

“And” between values parts separate entries of the source, which are not always exact repeats. Equal values may be shown once.

With `F[P-](F)(F)(F)(F)F.F[P-](F)(F)(F)(F)F.F[P-](F)(F)(F)(F)F.[C-]#[O+].[C-]#[O+].[C-]#[O+].[Re+].[Ru+2].c1ccc(-c2ccccn2)nc1.c1ccc(-c2ccccn2)nc1.c1ccc(-c2ccnc3c2ccc2c(-c4ccccc4)ccnc23)cc1.c1cnc2c(c1)c1nc(-c3ccncc3)[nH]c1c1cccnc12` [RuRe-1, [Ru(bpy)2LRe(CO)3(DIP)](PF6)3], the IC50 in data set [1] was found to be 11.8 ± 0.4 µM; in data set [2] it was 3.1 ± 0.8 µM; in data set [3], 10 ± 0.8 µM; in data set [4] it was 25.1 ± 0.7 µM. In addition, the “log P o/w” value in data set [5] is recorded as 0.47. The “S cell cycle population” value with HeLa cells [6] (6.2 μM) is 12.5 ± 0.2%; in the data set with HeLa cells [6] (9.3 μM) it was 27.4 ± 0.9%; with HeLa cells [6] (12.4 μM) it was 33.8% and 33.8 ± 1.2%. The figures for the “G2/M cell cycle population” value with HeLa cells [6] (6.2 μM), with HeLa cells [6] (9.3 μM) and in the data set on HeLa cells [6] (12.4 μM) were 18.7 ± 1.3%, 16.1 ± 1.1% and 14.5 ± 1.1%, respectively. Moreover, the results for the “G0/G1 cell cycle population” value in the data set with HeLa cells [6] (6.2 μM), in the data set with HeLa cells [6] (9.3 μM) and in the data set on HeLa cells [6] (12.4 μM) were 68.8 ± 0.5%, 56.5 ± 1.1% and 51.7 ± 0.9%, respectively. Also, the “intracellular ROS levels (H2DCFDA)” value in the data set with HeLa cells [7] is recorded as “increase in intracellular ROS levels in a concentration-dependent manner”. In addition, the “cell populations (colonies) compared to the control group” value in the data set on HeLa cells [8] (9.3 μM) amounted to 4.8%.
Take `F[P-](F)(F)(F)(F)F.F[P-](F)(F)(F)(F)F.F[P-](F)(F)(F)(F)F.[C-]#[O+].[C-]#[O+].[C-]#[O+].[Re+].[Ru+2].c1ccc(-c2ccnc3c2ccc2c(-c4ccccc4)ccnc23)cc1.c1cnc2c(c1)c1nc(-c3ccncc3)[nH]c1c1cccnc12.c1cnc2c(c1)ccc1cccnc12.c1cnc2c(c1)ccc1cccnc12` [RuRe-2, [Ru(phen)2LRe(CO)3(DIP)](PF6)3]: the IC50 amounted to 11.2 ± 0.9 µM in data set [1], 2.5 ± 1.3 µM in data set [2], 12.5 ± 0.9 µM in data set [3] and 28.1 ± 1.1 µM in data set [4]. The “log P o/w” value in data set [5] turned out to be 2.10. Further, the “S cell cycle population” value in the data set on HeLa cells [6] (5.0 μM) is 16.8 ± 1.6%; in the data set with HeLa cells [6] (7.5 μM), 39.9 ± 1.5%; with HeLa cells [6] (10.0 μM), 40.0% and 40.0 ± 0.6%. In addition, the “G2/M cell cycle population” value turned out to be 17.9 ± 1.4% in the data set on HeLa cells [6] (5.0 μM), 7.4 ± 0.5% with HeLa cells [6] (7.5 μM) and 7.6 ± 0.2% with HeLa cells [6] (10.0 μM). The “G0/G1 cell cycle population” value in the data set on HeLa cells [6] (5.0 μM) is 65.3 ± 0.9%; with HeLa cells [6] (7.5 μM), 52.7 ± 1.3%; in the data set with HeLa cells [6] (10.0 μM) it was 52.4 ± 1.0%. The “intracellular ROS levels (H2DCFDA)” value in the data set with HeLa cells [7] is recorded as “increase in intracellular ROS levels in a concentration-dependent manner”. Besides, the “cell populations (colonies) compared to the control group” value with HeLa cells [8] (7.5 μM) was 3.9%.

One may read the IC50 as the concentration at which inhibition is half-maximal. Higher therefore signals lower potency.
